# “Also recorded” adds a separate entry of the source.
# Assays:
# [1] = system: SK-Mel-2 cells; test: Clonogenic assay, SK-Mel-2 cells after GPNMB siRNA; format: cell-based, human
# Protocol: Cells were plated in 96-well plates and allowed to recover overnight. […] The cells were then transferred into 6-well plates and allowed to form colonies. Colonies were stained with Giemsa stain (Sigma) and counted. The surviving cell fractions were calculated based upon the ratio of the treated sample and the untreated control. The results were expressed as a percentage of control using GraphPad Prism Version 4 software.
# The amount of GPNMB expression was reduced for at least 7 days after transfection.
# [2] = system: SK-MEL-2 human melanoma xenograft; test: SK-MEL-2 human melanoma xenograft in athymic mice; format: in vivo
# Protocol: Five- to 6-week old athymic mice (CD-1 nu/nu females), used for human tumor xenografts, were obtained from Harlan Laboratories (Indianapolis, Ind.). Animals were housed in specific pathogen-free conditions, according to the guidelines of the Association for Assessment and Accreditation of Laboratory Animal Care International (AAALAC International). Test animals were provided pelleted food and water ad libitum and kept in a room with conditioned ventilation (HVAC), temperature (22°±2° C.), relative humidity (55%±15%), and photoperiod (12 hr). All studies were carried out with approved institutional animal care and use protocols.
# (§1) The tumor inhibitory activity of the CR011-MMAE immunoconjugate was measured in an anti-tumor xenograft model using athymic mice, according to published methods (see Geran et al., Cancer Chemother. Rep. 3:1-104 (1972)). […] When tumors became established (10-20 days), the animals were pair-matched into groups (n=6 mice/group), and treatment was administered by intravenous injection (tail vein).
# (§2) The SK-MEL-2 human melanoma (ATCC #HTB-68) was derived from a metastatic site (skin of thigh) of a person with malignant melanoma, and the SK− MEL-5 human melanoma (ATCC #HTB-70) was derived from a metastatic site (axillary lymph node) of a person with malignant melanoma (see Fogh et al., J. Natl. Cancer Inst. 59: 221-226 (1977)). Both cell lines were obtained from the American Type Culture Collection.
# (§3) The effects of treatment were monitored by repetitive tumor measurements across 2 diameters with Vernier calipers; tumor size (in mg) was calculated using a standard formula, (W^2×L)/2, assuming a specific gravity of 1.0. Tumor size and body weights were assessed twice weekly. Mice were examined daily, however, and moribund animals were humanely euthanized if clinical indications of excessive pain or distress were noted (i.e., prostration, hunched posture, paralysis/paresis, distended abdomen, ulcerations, abscesses, seizures, and/or hemorrhages) Animals with tumors exceeding 2,000 mg were removed from the study and euthanized humanely.
# No apparent or statistically significant anti-tumor effects were observed. […] In preliminary studies, tumor regression was complete and was not followed by regrowth of the tumor despite lengthy observation periods (up to 200 days).
# [3] = system: SK-MEL-5 human melanoma xenograft; test: SK-MEL-5 human melanoma xenograft in athymic mice; format: in vivo
# Protocol: as §1, §2, §3
# Soon after the commencement of treatment with paclitaxel, however, significant tumor growth inhibition was observed (P≦0.039) at day 3 after treatment began, and this anti-tumor effect continued, producing 100% growth inhibition (stasis). The responses of SK-MEL-5-bearing test animals to vinblastine and paclitaxel were short-lived. After cessation of treatment at the maximally tolerated doses, tumors resumed rapid, progressive growth.
# [4] = system: SK-Mel-2 cells; test: Cell cycle analysis (BrdU / propidium iodide flow cytometry); format: cell-based, human
# Protocol: (§4) Briefly, cells were pulsed at the indicated times with 30 μM of bromodeoxyuridine (BrdU, Sigma) for 30 min, harvested, fixed and permeabilized in methanol. Nascent DNA synthesis was detected by anti-bromodeoxyuridine-FITC (BD Biosciences, San Jose, Calif.) staining. Total DNA content was detected using propidium iodide (PI, Sigma). For apoptosis analysis, cells were treated as above and labeled with Annexin V-FITC followed by propidium iodide exclusion using the Annexin V-FITC Apoptosis Detection kit I (BD PharMingen, San Diego, Calif.) according to the manufacturer's protocols. Flow cytometry (as described in the previous Example) was used to assay both cell cycle and apoptosis studies.
# (§5) DNA synthesis and cell cycle progression were determined by flow cytometry (Table 52).
# [5] = system: TK-10 control cells; test: as above; format: cell-based, human
# Protocol: as §4, §5
substance,measurement,setting,value
CR011-vcMMAE: CR011 conjugated to monomethyl auristatin E through a protease cleavable valine-citrulline linker; approx. 4 drugs per antibody,sensitivity of SK-Mel-2 cells to growth-inhibitory activity following siRNA-mediated GPNMB knockdown,[1],less sensitive
same,tumor size reached,"[2]; 1 mg/kg single bolus dose, day 58","≥ 2,000 mg"
same,tumor response (in words),[2]; 10 mg/kg single bolus dose,complete regressions
same,"earliest significant treatment effects, time after treatment commenced","[2]; CR011-vcMMAE i.v. q4d×4, P≦0.014",4 days
same,anti-tumor effect (in words),"[2]; i.v., CR011-vcMMAE 20, 10, 5 or 2.5 mg/kg q4d×4, vinblastine […] q4d×4",tumors rapidly diminished in size for the majority of the test animals
same,treatment effects on gross examination,"[2]; mouse, in vivo",no abnormal treatment effects
same,effects of treatment on body weight or weight gain,[2]; twice weekly body weight determinations,no observable or statistically significant effects
same,"earliest significant anti-tumor effects, time after treatment began","[3]; 10 mg/kg/treatment, compared to PBS-treated controls (P=0.039)",10 days
same,doses at which complete regressions occurred,"[3]; i.v., q4d×4",≥ 2.5 mg/kg
same,anti-tumor effect (in words),"[3]; i.v., CR011-vcMMAE 1.25 to 20 mg/kg q4d×4, vinblastine […] q4d×4","Substantial tumor growth inhibition, as well as tumor growth delay and complete regressions"
same,"toxicity (mortality, body weight or weight gain)","[3]; mouse, in vivo",no indication of toxicity
same,decreased percentage of cells in G1 and S-phase vs untreated cells,"[4]; 1000 ng/mL, 24 hrs",10%
same,reduced percentage of cells in G1 and S-phase,"[4]; 1000 ng/mL, 48 hr",11%
same,% G1,"[4]; SK-Mel-2, 24 hour, 100 ng/mL",56.0%
same,% S-phase,"[4]; SK-Mel-2, 24 hour, 100 ng/mL",26.9%
same,% Sub-G1,"[4]; SK-Mel-2, 24 hour, 100 ng/mL",0.2%
same,% G1,"[4]; SK-Mel-2, 24 hour, 1000 ng/mL",43.7%
same,% S-phase,"[4]; SK-Mel-2, 24 hour, 1000 ng/mL",20.0%
same,effect on cycling of GPNMB-negative cells,[5]; 1000 ng/mL,did not affect the cycling
same,% G1,"[5]; TK-10, 24 hour, 100 ng/mL",51.1%
same,% S-phase,"[5]; TK-10, 24 hour, 100 ng/mL",35.1%
same,% Sub-G1,"[5]; TK-10, 24 hour, 100 ng/mL",0.7%
same,% G1,"[5]; TK-10, 24 hour, 1000 ng/mL",52.6%
same,% S-phase,"[5]; TK-10, 24 hour, 1000 ng/mL",34.2%
same,% Sub-G1,"[5]; TK-10, 24 hour, 1000 ng/mL",0.8%
"CR011: fully human monoclonal antibody that specifically binds to GPNMB; VH SEQ ID NO: 20, VL SEQ ID NO: 29",tumor growth inhibition by components of the immunoconjugate (in words),[2]; doses identical to that contained in the intact immunoconjugate (5 mg/kg q4d×4),lack of responses; also recorded: lack of tumor growth inhibition
same,% G1,"[4]; SK-Mel-2, 24 hour, 1000 ng/mL",63.6%
same,% G2/M,"[4]; SK-Mel-2, 24 hour, 1000 ng/mL",6.4%
same,% S-phase,"[4]; SK-Mel-2, 24 hour, 1000 ng/mL",25.2%
same,% Sub-G1,"[4]; SK-Mel-2, 24 hour, 1000 ng/mL",0.5%
same,% G1,"[5]; TK-10, 24 hour, 1000 ng/mL",42.0%
same,% G2/M,"[5]; TK-10, 24 hour, 1000 ng/mL",6.3%
same,% S-phase,"[5]; TK-10, 24 hour, 1000 ng/mL",39.8%
same,% Sub-G1,"[5]; TK-10, 24 hour, 1000 ng/mL",0.3%

# Reference: patent US20130244255A1, “ANTIBODIES DIRECTED TO GPNMB AND USES THEREOF” (priority 2006, published 2013)
